No end group written: not given here.
Experiments:
CD4+ T cells = assay: flow cytometry of intracellular IFN-γ and IL-4 in TCR-stimulated primed T cells; type: cell-based, mouse (BALB/c); conditions: α-MSH 30 pg/ml, anti-CD3, 24 h
Method: Flow Cytometry. For immunostaining and flow cytometry, T cells (2×10^6 cells) were obtained from 24 hour cultures of enriched primed T cells TCR-stimulated in the presence of α-MSH as described above. The cells were centrifuged and washed once in 400 μl of brefeldin/PBS buffer (10 mM PBS, 10 μg/ml brefeldin A). The cells were resuspended in 100 μl of PBS/brefeldin and 100 μl of 4% paraformaldehyde/PBS fixing buffer. The cells were incubate at room temperature for 20 minutes with gentle agitation and washed once with 200 μl of brefeldin/PBS, centrifuged, and resuspended in 50 μl of PBS/saponin (10 mM PBS, 1% BSA, 0.1% Na Azide, 0.5% Saponin) and incubated 10 minutes at room temperature. To the cell suspensions 2 μg of FITC-conjugated anti-cytokine antibody (anti-IL-4 or -IFN-γ) or FITC-isotype control was added. […] The stained cells were analyzed by a Coulter Epics flow cytometer calibrated for two color fluorescence, and presented were the fluorescence of blast (proliferating) cells in two dimensions.
To further examine α-MSH suppression of IFN-γ production by T cells, the frequency of IFN-γ producing T cells activated in the presence of α-MSH was assayed by flow cytometry. […] The stained cells were analyzed by two-color flow cytometry gating on the blastogenic, proliferating T cells. […] Percent of analyzed cell population is given for each quadrant in the lower right-hand of each histogram. […]

primed Th1 cells = assay: in vitro regulatory T cell activity assay (IFN-γ of freshly activated primed Th1 cells in coculture); type: cell-based, mouse (BALB/c)
Method: Assay For In Vitro Regulatory T Cell Activity. The α-MSH-treated TCR-stimulated T cells, as described above, were cultured for 48 hours. The plate was spun down at 250×g for 10 minutes and supernatant discarded. Freshly isolated, enriched in vivo primed Th1 cells (4×10^6 cells/ml) mixed with 2C11 (1 μg/ml) were added (200 μl) to the wells of the α-MSH pre-treated, TCR-stimulated T cells and incubated for 48 hours. The culture supernatant was assayed for IFN-γ by sandwich ELISA. For long term cultures, primed T cells were TCR-stimulated in the presence of α-MSH for 48 hours. The plate was centrifuged and supernatant was exchanged for 200 μl of 2C11 (1 μg/ml) in fresh media, no x-MSH. The cultures were incubated for 72 hours and the conditioned media was again exchanged for fresh media and 2C11 antibody. The cultures were incubated for an additional 48 hours, centrifuged, supernatant discarded, and added were fresh in vivo primed Th1 cells and 2C11 antibody. Soluble TGF-β receptor II (sTGF-βRII, R&D Systems) was added to some of the cultures. These cultures were incubated for 48 hours and the culture supernatant was assayed for IFN-γ by sandwich ELISA.
Primed T cells (4×10^5 cells) were enriched and activated with anti-CD3 in the presence (α-MSH+anti-CD3) or absence (+anti-CD3) of α-MSH (30 pg/ml). After 48 hours of incubation the cells were mixed with freshly enriched primed Th1 cells (4×10^5 cells) and anti-CD3 antibody and cultured for 48 hours. The culture supernatant was assayed for IFN-γ by sandwich ELISA. Results are presented as IFN-γ pg/ml±SEM of eight independent experiments.
In addition, T cells initial TCR-stimulated in the presence of α-MSH and subsequently restimulated twice (Day 2 and Day 5) with anti-TCR antibody in the absence of α-MSH, still suppressed IFN-γ production by freshly activated primed Th1 cells (FIG. 6). […] Primed T cells (4×10^5 cells) were enriched and activated with anti-CD3 antibody in the presence of 30 pg/ml α-MSH (α-MSH+anti-CD3) or absence of α-MSH (+anti-CD3). After 48 hours of incubation the cells were centrifuged and resuspended in fresh media with anti-CD3 antibodies and incubated for 72 hours (day 5). The cells were again washed and re-stimulated with anti-CD3 and incubated for an additional 48 hours (day 7). After the final incubation the treated T cells (4×10^5 cells) were mixed with freshly enriched primed Th1 cells (4×10^5 cells) and anti-CD3 antibody and cultured for 48 hours. The culture supernatant was assayed for IFN-γ by sandwich ELISA. Results are presented as IFN-γ pg/ml±SEM of eight independent experiments. […] Therefore, α-MSH mediates induction of functionally active, regulatory Th3 cells.
TGF-β and α-MSH induce regulatory T cell activity. Primed T cells were TCR-stimulated in the presence or absence of 30 pg/ml α-MSH with TGF-β1 or TGF-β2 (5.0 ng/ml) added 4 hours after TCR-stimulation. The treated T cells (Regulatory T cells) were added to cultures of freshly activated primed T cells. Culture supernatants were assayed for IFN-γ 48 hours after addition of treated T cells. Data are presented as percent suppression±SEM of IFN-γ produced by freshly activated T cells with no added regulatory cells, from eight independent experiments.

Substance: α-melanocyte stimulating hormone (SYSMEHFRWGKPV; not fully specified; ends and bridges not checked; UniProt P01189 138-150, looked up) [α-MSH, synthetic α-MSH (Peninsula Laboratories); thirteen-amino acid neuropeptide derived from POMC]
- frequency of IFN-γ positive cells, intracellular IFN-γ staining in CD4+ T cells (CD4+ T cells): substantially shifted toward lower levels
- intracellular IL-4 staining in CD4+ T cells (CD4+ T cells): shift to higher levels
- IFN-γ in cocultures with T cells initially activated in the presence of α-MSH, long term (primed Th1 cells; α-MSH 30 pg/ml only at first stimulation, restimulated Day 2 and Day 5 without α-MSH, then coculture 48 h): significantly (p=0.05) suppressed
- induction of regulatory T cell activity (suppression of IFN-γ of other Th1 cells), factor individually (primed Th1 cells; α-MSH 30 pg/ml or TGF-β 5.0 ng/ml): induced regulatory T cell activity
